We go through 1 compound from US8609362B2, “G-proteins” (Givaudan SA, priority 2002, dated 2013).

Common to all, as to assay type: cell-based
For test [1], the system named is G-protein only. Put plainly: Fluo-4 calcium assay, G-protein only control (TAS2R44 cell line). Particulars: Gα16gustducin44, ligand 10 μM. From the text:
(§1) The following results were obtained:

The next test deals with T1, human TAS2R43 (Homo sapiens, UniProt P59537).
T1 construct: expressed in transfected cells
T1 sequence (P59537 1-309): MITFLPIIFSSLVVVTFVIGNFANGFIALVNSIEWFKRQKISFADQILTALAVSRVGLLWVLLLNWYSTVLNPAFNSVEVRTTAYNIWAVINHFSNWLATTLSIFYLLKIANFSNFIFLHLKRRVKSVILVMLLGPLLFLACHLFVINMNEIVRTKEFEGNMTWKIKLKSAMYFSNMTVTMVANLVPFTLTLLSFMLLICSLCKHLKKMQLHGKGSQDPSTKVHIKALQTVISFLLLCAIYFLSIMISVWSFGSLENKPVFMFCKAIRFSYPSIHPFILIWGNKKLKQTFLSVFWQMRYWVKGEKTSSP
Put plainly: Fluo-4 calcium assay, tetracycline-inducible cells stably expressing human TAS2R43 and G16gust44. As to conditions: ligand 10 μM.
Source text: as §1

The test system of test [2] is G-protein only. Put plainly: Fluo-4 calcium assay, G-protein only control (TAS2R43 cell line). Particulars: Gα16gustducin44, ligand 10 μM.
Source text: as §1

A further test deals with T2, human TAS2R44 (Homo sapiens, UniProt P59538).
T2 construct: expressed in transfected cells
T2 sequence (P59538 1-309): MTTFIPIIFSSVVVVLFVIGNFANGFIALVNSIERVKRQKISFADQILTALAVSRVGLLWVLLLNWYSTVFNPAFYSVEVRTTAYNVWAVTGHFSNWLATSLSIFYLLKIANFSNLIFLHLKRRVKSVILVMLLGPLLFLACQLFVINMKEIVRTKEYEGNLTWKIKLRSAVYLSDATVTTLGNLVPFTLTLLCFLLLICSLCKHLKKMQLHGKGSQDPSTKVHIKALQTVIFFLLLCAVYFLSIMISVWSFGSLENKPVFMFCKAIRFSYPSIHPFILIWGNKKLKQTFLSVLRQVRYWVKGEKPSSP
Briefly: Fluo-4 calcium assay, tetracycline-inducible cells stably expressing human TAS2R44 and G16gust44. Particulars: ligand 10 μM.
Source text: as §1

As to `COc1cccc2c1cc([N+](=O)[O-])c1c(C(=O)O)cc3c(c12)OCO3` [aristolochic acid], the “increase in mean fluorescence over baseline following ligand addition” value was 5700 RFUs in the test on G-protein only [1]; 26766 RFUs on human TAS2R43 (G-protein + human TAS2R43, Gα16gustducin44); 3955 RFUs in the test on G-protein only [2]; 17254 RFUs at human TAS2R44 (G-protein + human TAS2R44, Gα16gustducin44). The “fluorescence signal (in words)” value on human TAS2R43 (HEK293 T-Rex cells, TAS2R43, G16-gustducin 44) is “robust fluorescence signal”; at human TAS2R44 (HEK293 T-Rex cells, TAS2R44, G16-gustducin 44) it was “robust fluorescence signal”.
